From ChEMBL document CHEMBL1133379, “Bioisosteric modification of PETT-HIV-1 RT-inhibitors: synthesis and biological evaluation” (Bioorg Med Chem Lett, 2000)

Columns and labels:
[1] = test system: Human immunodeficiency virus 1; test: Antiviral activity against HIV-1 virus.; assay type: functional; settings: read-out: ED50 (the source's name)
[2] = target: Human immunodeficiency virus type 1 reverse transcriptase (Human immunodeficiency virus 1, UniProt Q72547); test: Inhibition of wild-type HIV-1 Reverse transcriptase.

Row | Compound | EC50 [1] | IC50 [2]
1 | COc1ccccc1CCNC(=S)Nc1nccs1 | 400 nM | –
2 | COc1cccc(C(=O)CC/N=C(\S)Nc2ccc(Br)cn2)c1 | 911 nM | 80 nM
3 | O=C(CCNC(=S)Nc1ccc(Br)cn1)c1ccccc1 | 36 nM | < 27 nM
4 | COc1ccccc1C(=O)CCNC(=S)Nc1ccc(Br)cn1 | 76 nM | 3 nM
5 | CCOc1ccc(F)c(CCNC(=O)Nc2ccc(Br)cn2)c1Cl | 50 nM | –
6 | O=S(=O)(NCCc1ccccc1)Nc1cncc(Cl)c1 | > 100000 nM | > 10000 nM
7 | N=C(Nc1ccc(Br)cn1)N[C@@H]1C[C@@H]1c1ccccc1 | 1200 nM | 180 nM
8 | O=C(CCNC(=S)Nc1ccc(Br)cn1)c1ccccc1Cl | 100 nM | 10 nM
9 | Fc1cccc(F)c1CC/N=C(\S)Nc1ccc(Br)cn1 | 10 nM | –
10 | O=C(CC/N=C(\S)Nc1ccc(Cl)cn1)c1c(F)cccc1F | 28 nM | 6 nM
11 | S=C(Nc1ccc(Br)cn1)N[C@@H]1C[C@@H]1c1ccccc1 | 20 nM | 8 nM
12 | S=C(NCCc1ccccc1)Nc1ccc(Cl)cn1 | 30 nM | 3 nM
13 | O=C(NCCC(=O)c1ccccc1F)Nc1ccc(Br)cn1 | 201 nM | 54 nM
14 | N#CN/C(=N\c1ccc(Cl)cn1)NCCc1ccccc1 | > 100000 nM | > 10000 nM
15 | O=C(CC/N=C(\S)Nc1ccc(Br)cn1)c1ccc(F)cc1 | 300 nM | 47 nM
16 | COc1ccccc1CCN=C(NC#N)Nc1nccs1 | > 100000 nM | > 10000 nM
17 | O=C(CC/N=C(\S)Nc1ccc(Br)cn1)c1ccccc1F | 9 nM | 4 nM
18 | O=C(CC/N=C(\S)Nc1ccc(Br)cn1)c1cc(F)ccc1F | 67 nM | < 25 nM
19 | O=C(CCNC(=S)Nc1ccc(Br)cn1)c1c(F)cccc1F | 50 nM | 3 nM
20 | CCOc1ccc(F)c(CC/N=C(\N)Nc2ccc(Br)cn2)c1Cl | 1000 nM | 400 nM
21 | CCOc1ccc(F)c(CCNC(=S)Nc2ccc(Br)cn2)c1Cl [THIOUREA, N-(5-BROMO-2-PYRIDINYL)-N'-(2-(2-CHLORO-3-ETHOXY-6-FLUOROPHENYL)ETHYL)-] | 7 nM | –
